SMILES strings stand for the structures.

Tested on in one assay: not listed separately
Kind of assay: Inhibition of Bat coronavirus HKU5 3CLpro. Details: species or system Pipistrellus bat coronavirus HKU5.
Details: not given
Broadly, the IC50 is the point on the concentration scale where inhibition reaches its midpoint. Read a high IC50 as weaker potency. Take `O=C(Nc1ccc(N(Cc2ccsc2)C(=O)Cn2nnc3ccccc32)cc1)c1cccs1`: the IC50 was 540 nM.

Another assay concerns Pipistrellus bat coronavirus HKU5. Kind of assay: Inhibition of Bat coronavirus HKU5 3CLpro at 100 uM relative to control.
Details: not given
Broadly, the inhibition is the percentage by which the read-out fell short of the control. Higher therefore signals strong suppression. `O=C(Nc1ccc(N(Cc2ccsc2)C(=O)Cn2nnc3ccccc32)cc1)c1cccs1` registered an inhibition of 91%.

A further assay concerns Tylonycteris bat coronavirus HKU4. The following applies: at 100 µM.
`O=C(Nc1ccc(N(Cc2ccsc2)C(=O)Cn2nnc3ccccc32)cc1)c1cccs1` displayed an inhibition of 93%.
`CC(C)(C)NC(=O)C(c1cccnc1)N(C(=O)c1cccc2c1CCCC2)C1CC1` (stereo not given) came in with an inhibition of 18%.
Take `CC(C)(C)NC(=O)C(c1ccsc1)N(C(=O)Cc1cccc2ccccc12)c1ccc(OCF)cc1` (stereo not given): the inhibition came out at 17%.
`CC(C)(C)NC(=O)C(c1cccnc1)N(C(=O)c1cccc(O)c1)c1ccc(C(C)(C)C)cc1` (stereo not given) displayed an inhibition of 10%.
Still for that read-out and setting: under `Cc1nccn1CC(=O)N(c1ccc(N)cc1)C(C(=O)NC(C)(C)C)c1ccsc1` (stereo not given) stands 17%; under `COCC(=O)N(c1ccc(C(C)C)cc1)C(C(=O)NC(C)(C)C)c1cccnc1` (stereo not given), 23%; under `CC(C)(C)NC(=O)C(c1ccsc1)N(C(=O)c1ccco1)C1CC1` (stereo not given), 18%.
With `CC(C)(C)NC(=O)C(c1cccnc1)N(C(=O)c1cccc2c1CCCC2)c1ccc(C(C)(C)C)cc1` (stereo not given), the inhibition is 21%.
For `CC(C)(C)NC(=O)C(c1ccsc1)N(C(=O)c1n[nH]c2ccccc12)c1ccc(OC(F)F)cc1` (stereo not given), the inhibition amounted to 17%.
As for `CC(C)(C)C(=O)Nc1ccc(N(Cc2ccsc2)C(=O)Cn2nnc3ccccc32)cc1`, the inhibition stood at 67%.
Molecule `CCC(C)c1ccc(N(C(=O)c2ccco2)[C@H](C(=O)NC(C)(C)C)c2cccnc2)cc1` (stereo not given in full) displayed an inhibition of 39%.
`O=C(Nc1ccc(N(C(=O)Cn2nnc3ccccc32)C(C(=O)NCc2ccccc2)c2cccc(F)c2)cc1)C1CCC1` (stereo not given) showed an inhibition of 74%.
`CCC(=O)Nc1ccc(N(C(=O)Cn2nnc3ccccc32)C(C(=O)NC(C)(C)C)c2ccsc2)cc1` (stereo not given) yielded an inhibition of 34%.
With `CC(C)(C)NC(=O)C(c1cccnc1)N(C(=O)c1c[nH]cn1)c1ccc(C(C)(C)C)cc1` (racemic), the inhibition is 94%.
On to `CC(C)(C)NC(=O)C(c1cccnc1)N(C(=O)c1cnccn1)c1ccc(C(C)(C)C)cc1` (stereo not given), for which the inhibition came out at 41%.
Still for that read-out and setting: under `CC(C)(C)NC(=O)C(c1cccnc1)N(C(=O)Cc1cccnc1)c1ccc(F)cc1` (stereo not given) stands 47%; under `CC(C)(C)NC(=O)C(c1cccnc1)N(C(=O)c1ccco1)c1ccc(-c2ccc(F)cc2F)cc1` (stereo not given), 16%.
For the molecule `CC(C)(C)NC(=O)C(c1cccnc1)N(C(=O)c1ccc(Cl)o1)c1ccc(C(C)(C)C)cc1` (stereo not given), the inhibition stood at 12%.
In turn, `CC(C)(C)NC(=O)C(c1cccnc1)N(C(=O)c1ccco1)c1ccc(OCc2ccccc2)cc1` (stereo not given) displayed an inhibition of 14%.
On to `CC(C)(C)NC(=O)C(c1cccnc1)N(C(=O)c1coc2ccccc12)c1ccc(C(C)(C)C)cc1` (stereo not given), for which the inhibition amounted to 19%.
`CC(C)(C)OC(=O)n1cccc1-c1ccc(N(Cc2ccsc2)C(=O)Cn2nnc3ccccc32)cc1`: the inhibition came to 31%.
Molecule `CC(C)(C)NC(=O)C(c1ccsc1)N(C(=O)Cn1nnc2ccccc21)c1ccc(NC(=O)c2cccs2)cc1` (stereo not given) registered an inhibition of 26%.
`CC(C)(C)NC(=O)C(c1ccsc1)N(C(=O)c1cccc2c1CCCC2)c1ccc(C(C)(C)C)cc1` (stereo not given): the inhibition turned out to be 14%.
Molecule `CC(C)(C)NC(=O)C(c1ccsc1)N(C(=O)Cc1c[nH]c2ccccc12)C1CC1` (stereo not given) showed an inhibition of 17%.
Still for that read-out and setting: under `CC(C)(C)NC(=O)C(c1cccnc1)N(C(=O)c1ccccc1O)c1ccc(C(C)(C)C)cc1` (stereo not given) stands 11%; under `CC(C)(C)NC(=O)C(c1ccsc1)N(C(=O)c1ccco1)c1ccc(C(C)(C)C)cc1` (stereo not given), 19%.
For `CC(C)(C)NC(=O)C(c1cccnc1)N(C(=O)c1n[nH]c2ccccc12)c1ccc(F)cc1` (stereo not given), the inhibition came out at 14%.
As for `CC(C)(C)NC(=O)C(c1cccnc1)N(C(=O)c1ccco1)c1ccc(-c2cccc(C#N)c2)cc1` (stereo not given), the inhibition turned out to be 16%.
Molecule `CC(C)(C)NC(=O)C(c1cccnc1)N(C(=O)Cc1cnc[nH]1)c1ccc(C(C)(C)C)cc1` (stereo not given) yielded an inhibition of 24%.
Still for that read-out and setting: to `CC(C)c1ccc(N(C(=O)Cc2c[nH]c3ccccc23)C(C(=O)NC(C)(C)C)c2ccsc2)cc1` (stereo not given) belongs 25%; to `CC(C)(C)NC(=O)C(c1cc[nH]n1)N(C(=O)c1ccco1)c1ccc(C(C)(C)C)cc1` (stereo not given), 11%.
The molecule `CC(C)(C)NC(=O)C(c1ccsc1)N(C(=O)Cn1nnc2ccccc21)c1ccc(NC(=O)c2ccno2)cc1` (stereo not given) yielded an inhibition of 76%.
Same read-out and setting: under `Cc1nccn1CC(=O)N(c1ccc(C(C)(C)C)cc1)C(C(=O)NC(C)(C)C)c1ccsc1` (stereo not given) stands 11%; under `CC(C)(C)NC(=O)C(c1ccsc1)N(C(=O)Cc1c[nH]c2ccccc12)c1ccc(F)cc1` (stereo not given), 22%.
For the molecule `CC(C)c1ccc(N(C(=O)Cc2c[nH]c3ccccc23)C(C(=O)NC(C)(C)C)c2cccnc2)cc1` (stereo not given), the inhibition worked out at 78%.
In turn, `CC(C)c1ccc(N(C(=O)c2ccc(C#N)cc2)C(C(=O)NC(C)(C)C)c2ccsc2)cc1` (stereo not given) showed an inhibition of 21%.
As to `CC(C)(C)NC(=O)C(c1cccnc1)N(C(=O)CC(F)(F)F)c1ccc(C(C)(C)C)cc1` (stereo not given), the inhibition was found to be 13%.
Molecule `CC(C)(C)NC(=O)C(c1cccnc1)N(C(=O)c1ccco1)c1ccc(/C=C/c2ccccc2)cc1` (stereo not given) returned an inhibition of 21%.
Molecule `CC(C)(C)NC(=O)C(c1ccsc1)N(C(=O)Cc1cccnc1)C1CC1` (stereo not given) yielded an inhibition of 16%.
On the same count and under the same terms, under `CC(C)C(=O)Nc1ccc(N(C(=O)Cn2nnc3ccccc32)C(C(=O)NC(C)(C)C)c2ccsc2)cc1` (stereo not given) stands 76%; under `COc1cccc(C(=O)N(c2ccc(C(C)(C)C)cc2)C(C(=O)NC(C)(C)C)c2cccnc2)c1` (stereo not given), 17%.
For `CC(C)(C)NC(=O)C(c1c[nH]cn1)N(C(=O)c1ccco1)c1ccc(C(C)(C)C)cc1` (stereo not given), the inhibition was found to be 9%.
For the molecule `Cc1ccc(C(C(=O)NC(C)(C)C)N(C(=O)c2ccco2)c2ccc(C(C)(C)C)cc2)cn1` (stereo not given), the inhibition turned out to be 8%.
Molecule `CC(C)(C)NC(=O)C(c1ccnnc1)N(C(=O)c1ccco1)c1ccc(C(C)(C)C)cc1` (stereo not given) came in with an inhibition of 35%.
The molecule `O=C(Nc1ccc(N(Cc2ccsc2)C(=O)Cn2nnc3ccccc32)cc1)C1CC1` had an inhibition of 89%.
`CC(C)(C)NC(=O)C(c1cccnc1)N(C(=O)c1ccco1)c1ccc(-c2ccc[nH]2)cc1` (stereo not given) showed an inhibition of 31%.
The same measure, in the same setting: to `CC(C)c1ccc(N(C(=O)Cc2cccc3ccccc23)C(C(=O)NC(C)(C)C)c2cccnc2)cc1` (stereo not given) belongs 26%.
The molecule `CC(C)(C)NC(=O)[C@H](c1cccnc1)N(C(=O)c1c[nH]cn1)c1ccc(C(C)(C)C)cc1` displayed an inhibition of 44%.
Consider `Cc1ccoc1C(=O)N(c1ccc(C(C)C)cc1)C(C(=O)NC(C)(C)C)c1cccnc1` (stereo not given), for which the inhibition worked out at 36%.
Molecule `CC(C)C(=O)Nc1ccc(N(Cc2ccsc2)C(=O)Cn2cc(-c3ccccc3)nn2)cc1` displayed an inhibition of 25%.
In turn, `CC(C)(C)NC(=O)C(c1ccsc1)N(C(=O)Cc1cccc2ccccc12)c1ccc(F)cc1` (stereo not given) came in with an inhibition of 15%.
`CC(C)(C)NC(=O)C(c1cccnc1)N(C(=O)c1ccncc1)c1ccc(C(C)(C)C)cc1` (stereo not given) displayed an inhibition of 13%.
Still for that read-out and setting: under `CC(C)(C)NC(=O)C(c1ccsc1)N(C(=O)c1ccc(C(F)(F)F)nc1)c1ccc(C(C)(C)C)cc1` (stereo not given) stands 17%; under `CC(C)(C)NC(=O)C(c1cccc(F)c1)N(C(=O)Cn1nnc2ccccc21)C12CC3CC(CC(C3)C1)C2` (stereo not given), 14%.
`CC(C)(C)NC(=O)C(c1cccnc1)N(C(=O)c1ccco1)c1ccc(-c2ccccc2C#N)cc1` (stereo not given) registered an inhibition of 62%.
On the same count and under the same terms, under `O=C(Cn1nnc2ccccc21)N(Cc1ccsc1)c1ccc(-c2ccncc2)cc1` stands 98%; under `CCC(=O)Nc1ccc(N(C(=O)Cn2cnc3ccccc32)C(C(=O)NC(C)(C)C)c2ccsc2)cc1` (stereo not given), 68%; under `CC(C)(C)NC(=O)C(c1cccnc1)N(C(=O)c1ccco1)c1ccc(-c2ccnc(F)c2)cc1` (stereo not given), 16%.
On the same count and under the same terms, under `CC(C)(C)NC(=O)C(c1cccnc1)N(C(=O)Cc1ccco1)C1CC1` (stereo not given) stands 43%; under `CC(C)(C)NC(=O)C(c1ccccn1)N(C(=O)c1cccnc1)c1ccc(C(C)(C)C)cc1` (stereo not given), 12%; under `Cc1nc2ccccc2n1CC(=O)N(c1ccc(NS(C)(=O)=O)cc1)C(C(=O)NC(C)(C)C)c1ccsc1` (stereo not given), 13%.
For the molecule `CC(C)(C)NC(=O)C(c1ccsc1)N(C(=O)c1cccc2c1CCCC2)C1CC1` (stereo not given), the inhibition came out at 14%.
`CC(C)c1ccc(N(C(=O)c2ccco2)C(C(=O)NC(C)(C)C)c2ccsc2)cc1` (stereo not given) came in with an inhibition of 18%.
With `CC(C)(C)NC(=O)C(c1ccsc1)N(C(=O)c1cccc2c1CCCC2)c1ccc(OCF)cc1` (stereo not given), the inhibition turned out to be 15%.
In turn, `CC(C)(C)NC(=O)C(c1cccnc1)N(C(=O)Cc1ccccc1)c1ccc(C(C)(C)C)cc1` (stereo not given) returned an inhibition of 20%.
`CC(C)(C)NC(=O)C(c1cccnc1)N(C(=O)CO)c1ccc(C(C)(C)C)cc1` (stereo not given): the inhibition worked out at 29%.
Same read-out and setting: under `CC(C)(C)NC(=O)C(c1ccsc1)N(C(=O)Cn1nnc2ccccc21)c1ccc(NS(C)(=O)=O)cc1` (stereo not given) stands 27%; under `CC(C)(C)NC(=O)C(c1ccsc1)N(C(=O)Cc1cccc2ccccc12)C1CC1` (stereo not given), 22%.

Values taken from ChEMBL document CHEMBL3603819, “Targeting zoonotic viruses: Structure-based inhibition of the 3C-like protease from bat coronavirus HKU4--The likely reservoir host to the human coronavirus that causes Middle East Respiratory Syndrome (MERS)” (Bioorg Med Chem, 2015).
